Assay results published in paper PMC12299477 (Viruses, 2025).

Columns and labels:
RSV-A2 = assay: Virus inhibition assay (plaque reduction), RSV-A2 on Hep-2 cells; format: cell-based; settings: human respiratory syncytial virus; for activity at 0.3 µM / activity at 3 µM / activity at 33 µM: HEp-2, 72 h, read-out: Residual Virus Infectivity (%) RSV-A2
Hep-2 cells = assay: Cytotoxic effect microscopically visible in the RSV-A2 screening; format: cell-based, human; set-up: key: -: Cytotoxic effect microscopically visible
MRC-5 cells = assay: Cytotoxic effect microscopically visible in the HCoV-OC43 screening; format: cell-based, human; set-up: key: -: Cytotoxic effect microscopically visible; settings: 33 µM
MDCK cells = assay: Cytotoxic effect microscopically visible in the IFV-A H1N1 screening; format: cell-based, canine; set-up: key: -: Cytotoxic effect microscopically visible; settings: 33 µM
in vitro = settings: dog
IFV-A H1N1 = assay: Virus inhibition assay (focus reduction), IFV-A H1N1 on MDCK cells; format: cell-based; settings: Influenza A virus, read-out: EC50 (µM) (95% CI)
HCoV-OC43 = assay: Virus inhibition assay (focus reduction), HCoV-OC43 on MRC-5 cells; format: cell-based, human coronavirus; settings: for EC50: Betacoronavirus 1, OC43, MRC5, read-out: EC50 (µM) (95% CI)
[1] = Cell viability MTS assay on MRC-5 cells; format: cell-based; settings: human, same conditions as HCoV inhibition assay, read-out: CC50 (µM) (95% CI)
[2] = Cell viability MTS assay on MDCK cells; settings: dog
[3] = Cell viability MTS assay on Hep-2 cells; settings: human
[4] = Betacoronavirus 1, OC43, MRC5, 20 h, read-out: Residual Virus Infectivity (%) HCoV-OC43

Structure (SMILES) | Cytotoxic effect microscopically visible (Hep-2 cells; 33 µM) | Cytotoxic effect microscopically visible (MRC-5 cells) | EC50 (HCoV-OC43) [µM] | CC50 [1] [µM] | further results
O=C(O)C1CCN(C(=O)c2cc(-c3ccccc3)c(=O)n3c2sc2ccc(OC4CCCCC4)cc23)C1 (centres unmarked) [Compound 20] |  |  |  |  | activity at 0.3 µM (RSV-A2): 100%; activity at 3 µM (RSV-A2): 100%; activity at 33 µM (RSV-A2): 100%
CC(CC(=O)O)NC(=O)c1cc(-c2ccccc2)c(=O)n2c1sc1ccc(OC3CCCCC3)cc12 (centres unmarked) [Compound 21] | - | - |  |  | Cytotoxic effect microscopically visible (MDCK cells): -
CCOC(=O)C1=C[C@@H](OC(CC)CC)[C@H](NC(C)=O)[C@@H](N)C1 [oseltamivir, reference compound] |  |  |  |  | CC50 (in vitro): > 200 µM; EC50 (IFV-A H1N1): 0.17 µM
O=C(N[C@@H](Cc1ccc(O)cc1)C(=O)O)c1cc(-c2ccccc2F)c(=O)n2c1sc1ccc(OC3CCCCC3)cc12 [Compound 15] |  |  |  |  | activity at 0.3 µM (RSV-A2): 86%; activity at 3 µM (RSV-A2): 85%; activity at 33 µM (RSV-A2): 40%
O=C(N[C@@H](Cc1ccccc1)C(=O)O)c1cc(-c2ccccc2)c(=O)n2c1sc1ccc(OC3CCCCC3)cc12 [Compound 26] | - | - |  |  | 
CCN(CC)CCOc1ccc2sc3c(C(=O)Oc4ccc(S(N)(=O)=O)cc4)cc(-c4ccccc4)c(=O)n3c2c1 [Compound 28] | - | - |  |  | Cytotoxic effect microscopically visible (MDCK cells): -
O=C(N[C@@H](Cc1ccc(O)cc1)C(=O)O)c1cc(-c2ccc(Cl)cc2)c(=O)n2c1sc1ccc(OC3CCCCC3)cc12 [Compound 9] | - |  | 1.2 | 55.6 | 
O=C(N[C@@H](Cc1ccc(O)cc1)C(=O)O)c1cc(-c2cccs2)c(=O)n2c1sc1ccc(OC3CCCCC3)cc12 [Compound 25] | - |  | 0.29 | 16.5 | CC50 [2]: 86.1 µM; EC50 (IFV-A H1N1): 13.7 µM
O=C(N[C@@H](Cc1ccc(O)cc1)C(=O)O)c1cc(-c2cccc(F)c2)c(=O)n2c1sc1ccc(OC3CCCCC3)cc12 [Compound 16] |  |  | 4.22 | 84.7 | CC50 [3]: 72.9 µM; EC50 (RSV-A2; RSV-A2, Hep-2 cells, read-out: EC50 (µM) (95% CI)): 18.6 µM
O=C(N[C@@H](Cc1ccc(O)cc1)C(=O)O)c1ccc(=O)n2c1sc1ccc(OC3CCCCC3)cc12 [Compound 27] |  |  | 10 | 189 | 
O=C(NCC1(C(=O)O)CC1)c1cc(-c2ccccc2)c(=O)n2c1sc1ccc(OC3CCCCC3)cc12 [Compound 4] | - | - |  |  | 
C[C@H](CO)NC(=O)c1cc(-c2ccccc2)c(=O)n2c1sc1ccc(OC3CCCCC3)cc12 [Compound 7] | - | - |  |  | Cytotoxic effect microscopically visible (Hep-2 cells; 3 µM): -; Cytotoxic effect microscopically visible (MDCK cells): -
COc1ccc(-c2cc(C(=O)N[C@@H](Cc3ccc(O)cc3)C(=O)O)c3sc4ccc(OC5CCCCC5)cc4n3c2=O)cc1F [Compound 2] | - |  | 4.67 | 82.9 | activity at 0.3 µM (HCoV-OC43; [4]): 95%; activity at 3 µM (HCoV-OC43; [4]): 54%; activity at 33 µM (HCoV-OC43; [4]): 1%; activity at 0.3 µM (RSV-A2): 100%; activity at 3 µM (RSV-A2): 44%
NS(=O)(=O)c1ccc(OC(=O)c2cc(-c3ccccc3)c(=O)n3c2sc2ccc(OC4CCCCC4)cc23)cc1 [Compound 23] | - |  | 0.23 | 18.2 | 
NS(=O)(=O)c1ccc(OC(=O)c2cc(NCCN3CCOCC3)c(=O)n3c2sc2ccc(OC4CCCCC4)cc23)cc1 [Compound 29] | - | - |  |  | Cytotoxic effect microscopically visible (MDCK cells): -
